US8461118B2, “Lytic peptides having anti-proliferative activity against prostate cancer cells” (Tuskegee University, priority 2011, dated 2013)
Values joined by “and” are separate entries in the source; they are usually repeats but may differ in a detail not shown here. Identical values can stand only once. “Also recorded” adds a separate entry of the source. Ends that are not written are not given here.

What was measured:
PC-3 cells [1] = assay type: cell-based, human; details: for IC50: MTT, 72 h exposure
Excerpt: To evaluate the efficacy of these peptides in inhibiting prostate cancer, a prostate cancer progression model was followed that utilized several different cell lines in various experiments as described herein to form this model, including the known cell lines DU-145, PC-3, LNCaP, and hPrEC. […] This cell line has both LHRH-R and epidermal growth factor receptors (“EGFR”), and produces the EGFR ligands, transforming growth factor α (TGF-α) and EGF. The androgen-unresponsive PC-3 cell line is derived from a human bone metastasis of a grade IV prostatic adenocarcinoma, while the androgen-responsive LNCaP cell line is derived from a human lymph node metastasis. For all experiments described herein, normal primary human prostate epithelial cells (“hPrEC”) were obtained from Clonetics (Lonza Inc., Walkersville, Md.), while the other cell lines were purchased from ATCC and maintained in T-media (Gibco Invitrogen, CA) supplemented with 10% fetal bovine serum (FBS) (Gibco Invitrogen, CA) and 1% penicillin/streptomycin (Cellgro Mediatech, Inc., VA).
In the various experiments described below, unless otherwise noted, the cytotoxicity of the various peptides when measured was evaluated using the methylthiazol tetrazolium (“MTT”) assay (Sigma Aldrich, MO), which determines the number of viable cells from the formazan crystals produced by metabolic activity. The cells in such cytotoxicity experiments were plated in 96-well plates at 2.5×10^3 cells/well, and were allowed to reattach overnight. They were then exposed to the test lytic peptides (1-20 μM) for 72 h. The MTT reagent [3-(4,5-dimethylthiazol-2-yl)-2,5-diphenyltetrazolium bromide], 50 μL) in T-media was added to each well, and the plates were incubated for 2 h. The supernatant media was aspirated, and formazan crystals were dissolved with […] dimethylsulfoxide per well at 37° C. for 10 min. The quantity of solublized formazan per well was determined by a Spectromax plate reader at 540 nm (Molecular Devices, CA). Each assay was performed at least three times with six replicates per data point.
For all experiments, unless otherwise noted, statistics were performed with Microsoft Excel. Independent Student's t-test was utilized to determine statistical differences between experimental subjects and control subjects. The IC50 values were derived through regression analysis of the continuous data by cubic spline interpolation utilizing Aabel™ (Gigawiz Ltd. Co., OK), a software application that integrates statistics (inferential and multivariate) with graphical representation.
To determine the effectiveness of JCH and JC21 with or without mLHRH conjugates, androgen-independent, highly metastatic PC-3 cells were exposed to the peptides in increasing concentrations (0-20 μM).
For this experiment, IC50 values were determined by interpolation of three individual experiments performed in quadruplicate at 50% cell death. All values were reported in the table of FIG. 2A were determined to be significant compared to control p<0.001. In the table, “n.d.” serves as an abbreviation for “not determined,” as tests were not conducted for JHC and JC21 against LNCaP and DU-145.

DU-145 cells = assay: MTT cytotoxicity assay, DU-145 prostate cancer cells; assay type: cell-based, human; details: 72 h exposure
Excerpt: (§1) To evaluate the efficacy of these peptides in inhibiting prostate cancer, a prostate cancer progression model was followed that utilized several different cell lines in various experiments as described herein to form this model, including the known cell lines DU-145, PC-3, LNCaP, and hPrEC. […] This cell line has both LHRH-R and epidermal growth factor receptors (“EGFR”), and produces the EGFR ligands, transforming growth factor α (TGF-α) and EGF. The androgen-unresponsive PC-3 cell line is derived from a human bone metastasis of a grade IV prostatic adenocarcinoma, while the androgen-responsive LNCaP cell line is derived from a human lymph node metastasis. […]
(§2) In the various experiments described below, unless otherwise noted, the cytotoxicity of the various peptides when measured was evaluated using the methylthiazol tetrazolium (“MTT”) assay (Sigma Aldrich, MO), which determines the number of viable cells from the formazan crystals produced by metabolic activity. […] The quantity of solublized formazan per well was determined by a Spectromax plate reader at 540 nm (Molecular Devices, CA). […]

LNCaP cells = assay: MTT cytotoxicity assay, LNCaP prostate cancer cells; assay type: cell-based, human; details: 72 h exposure
Excerpt: as §1, §2

[2] = tested on: normal primary hPrEC cells; assay: MTT cytotoxicity on normal primary prostate epithelial cells; assay type: cell-based, human; details: 0-20 μM
Excerpt: as §1, §2

[3] = tested on: GFP-HS-27a bone marrow stromal cells; assay: Co-culture differential fluorescence, GFP-HS-27a bone marrow stromal cells; assay type: cell-based; details: for relative intensity of GFP-HS-27a cells: JCHmLHRH 5 μM or JC21mLHRH 8 μM, 12 hr
Experimental: In the various experiments described below, unless otherwise noted, co-cultures were prepared and utilized as described by Yates et al. (see Yates C, Shepard C R, Papworth G, Dash A, Beer Stolz D, Tannenbaum S, et al., Novel three-dimensional organotypic liver bioreactor to directly visualize early events in metastatic progression, Adv Cancer Res, 2007; 97:225-46; and Yates C, Shepard C R, Stolz D B, Wells A., Co-culturing human prostate carcinoma cells with hepatocytes leads to increased expression of E-cadherin, Br J Cancer 2007; 96:1246-52), with certain modifications as noted herein. The co-cultures consisted of 50,000 cells/cm^2 of GFP-HS-27a bone marrow stromal cells and 2000 cells/cm^2 of red fluorescent protein PC-3 prostate cancer cells (“RFP-PC-3”), and were maintained in Dulbecco's modified Eagle medium, and cell death was monitored in real-time (as described above) by differential fluorescence. To determine relative intensity, the total intensity area of each image as well as the threshold intensity for each channel was measured utilizing Metamorph Imaging Software (Molecular Devices, Inc., CA), and the significance between the two intensities was then analyzed statistically. All quantitative data was normalized to each control image.
For this experiment, RFP-PC-3 cell cultures, GFP-HS-27a cell cultures, and RFP-PC-3/GFP-HS-27a cell co-cultures were exposed to JCHmLHRH (5 μM) and JC21mLHRH (8 μM), and the various cultures were monitored by differential immunofluorescence over 12 h period. Images comprising black and white photographs of the cultures at the 0 hr, 6 hr, and 12 hr marks following administration of JCHmLHRH and JC21mLHRH are shown in FIG. 5C and FIG. 5D, respectively. Two trials of this experiment were conducted with similar results, and the photographs of FIG. 5C and FIG. 5D are illustrative of the results of both trials. […] Further, the RFP-PC-3/GFP-HS-27a co-culture images at the 6 hr and 12 hr marks largely resemble the corresponding time images for GFP-HS-27a cultures in relative intensity.
FIG. 5E in turn provides a chart showing the relative intensity of total areas measured under differential fluorescence of the co-culture cells after they were exposed to JCHmLHRH and JC21mLHRH in this experiment.

PC-3 cells [4] = assay: PC-3 growth recovery after 24 h peptide pretreatment; assay type: cell-based, human; details: 24 h pretreatment JCHmLHRH 5 μM or JC21mLHRH 8 μM, 3 days
Experimental: This experiment was performed to determine whether cancerous cells could recover after JCHmLHRH or JC21mLHRH exposure. PC-3 cell cultures were exposed to JCHmLHRH (5 μM) or JC21mLHRH (8 μM) for 24 hours. Growth was measured over a 3-day period. Growth of pre-treatment and post-treatment groups were compared over time.

RFP-PC-3 cells = assay: Co-culture differential fluorescence, RFP-PC-3 cells; assay type: cell-based, human; details: JCHmLHRH 5 μM or JC21mLHRH 8 μM, 12 hr
Experimental: In the various experiments described below, unless otherwise noted, co-cultures were prepared and utilized as described by Yates et al. (see Yates C, Shepard C R, Papworth G, Dash A, Beer Stolz D, Tannenbaum S, et al., Novel three-dimensional organotypic liver bioreactor to directly visualize early events in metastatic progression, Adv Cancer Res, 2007; 97:225-46; and Yates C, Shepard C R, Stolz D B, Wells A., Co-culturing human prostate carcinoma cells with hepatocytes leads to increased expression of E-cadherin, Br J Cancer 2007; 96:1246-52), with certain modifications as noted herein. The co-cultures consisted of 50,000 cells/cm^2 of GFP-HS-27a bone marrow stromal cells and 2000 cells/cm^2 of red fluorescent protein PC-3 prostate cancer cells (“RFP-PC-3”), and were maintained in Dulbecco's modified Eagle medium, and cell death was monitored in real-time (as described above) by differential fluorescence. To determine relative intensity, the total intensity area of each image as well as the threshold intensity for each channel was measured utilizing Metamorph Imaging Software (Molecular Devices, Inc., CA), and the significance between the two intensities was then analyzed statistically. All quantitative data was normalized to each control image. […]

[5] = tested on: PC-3 cells treated with siRNA-LHRH-R; assay: Peptide sensitivity of PC-3 cells after siRNA-LHRH-R knockdown (trypan blue exclusion); assay type: cell-based, human; details: 100 nM siRNA-LHRH-R
Experimental: To more firmly establish the significance of the mLHRH sequence on peptide activity, PC-3 cells were treated with siRNA-LHRH at 50 nM and 100 nM concentrations and assayed LHRH levels by immunofluorescence. In this Experiment, PC-3 cells were treated with siRNA-LHRH-R at 50 nM and 100 nM, and compared to control. For this experiment, a total of about 2×10^5 cells, equaling approximately 60-70% confluency, were plated in six-well plates. The LHRH-R siRNA (Santa Cruz, Calif.) was diluted in […] of Opti-MEM (Invitrogen, CA). A […] aliquot of Lipofectamine 2000 (Invitrogen, CA) was diluted in […] of Opti-MEM and incubated for 5 min at room temperature. The diluted siRNA and Lipofectamine 2000 were mixed according to manufacturer's directions and incubated for 20 min at room temperature. The resulting complexes were added to each well and incubated for 24 h. […]
LHRH-R expression was determined by immuno-fluorescence staining with 4′,6-diamidino-2-phenylindole (“DAPI”) utilizing anti-LHRH-R antibody (Lab Vision, CA) and Alexa 488 secondary antibody (Invitrogen, CA).
For purposes of comparison, PC-3 cells were treated with JC21 mLHRH or JCHmLHRH in the presence or absence of 100 nM siRNA-LHRH-R or siRNA-scramble treated cells. Cell viability was determined by trypan blue exclusion, and the results are depicted in the graph of FIG. 3C.

PC-3 cells [6] = assay: Real-time imaging, trypan blue exclusion and Annexin V in PC-3 cells; assay type: cell-based, human
Experimental: In the various experiments described below, unless otherwise noted, real-time imaging of cell cultures was performed utilizing an Olympus DSU (Disk Scanning Units) Confocal microscope (Olympus America Inc., PA). The subject cells were maintained in 5% CO2 at 37° C. in an incubation chamber (Pathology Devices, Inc., MD). Images were taken every 15 min and processed utilizing MetaMorph Imaging Software (Molecular Devices, CA).
Although the mechanism associated with the anti-tumor activity of lytic peptides has not been defined, without wishing to be limited to any mechanism of action, it is believed that direct interaction of the present lytic peptides with the cell membrane causes the electrochemical potential to collapse, resulting in cell death. To investigate the potential mechanism of action, a qualitative approach utilizing real-time imaging was employed in conjunction with monitoring of a classic marker of apoptosis, Annexin V. Since the mechanism of death was unknown, real-time imaging was employed for cells in a 5% CO2 and temperature-regulated (37° C.) chamber to monitor the effects of JC21mLHRH and JCHmLHRH on PC-3 cellular responses.
PC-3 cell cultures were exposed to JCHmLHRH (5 μM) or JC21mLHRH (8 μM) and imaged continuously for 24 h with time-lapse microscopy. FIG. 5A comprises eight black and white photographs depicting real-time images of PC-3 cells after treatment with lytic peptides JCHmLHRH (5 μM) or JC21mLHRH (8 μM) taken with time-lapse microscopy under 5% CO2 and 37° C. at 0, 3, 6, and 12 hours post administration. […] There were different modes of action by which JCHmLHRH and JC21mLHRH caused cell death.
FIG. 5B is a graph reporting experimental results for cell percentage corresponding to the images of FIG. 5A. Quantification of total cell number and cell viability was determined by trypan blue exclusion after exposure to JCHmLHRH (5 μM) or JC21mLHRH (8 μM) over a 24 h period. The results shown in the graph of FIG. 5B are representative of three individual experiments performed in triplicate (where the horizontal line at approximately 60% in the graph indicates significance at p<0.0001). The data indicates a rapid mode of action was observed by both the real-time imaging and trypan blue staining mechanisms, with nearly 80% cell death after only 6 h of treatment and approximately 100% cell death after the 24 h period.

Substance: mLHRH: modified LHRH binding sequence, tryptophan in place of tyrosine, QHWSWGLRPG (ends and bridges not checked; listed as Homo sapiens)
- cell death at higher concentrations (PC-3 cells [1]; mLHRH sequence alone): failed to cause 50% cell death
- concentration causing a decrease in cell proliferation of PC-3 cells (as low as) (PC-3 cells [1]; mLHRH sequence alone): 1 µM

Substance: FALALKALKKALKKLKKALKKAL [JCH]
- IC50 (PC-3 cells [1]): 6.67 µM

Substance: QHWSWGLRPGFALALKALKKALKKLKKALKKAL [JCHmLHRH]
- IC50 (DU-145 cells): 4.81 µM and 4.8 µM
- IC50 (LNCaP cells): 4.36 µM and 4.4 µM
- IC50 (PC-3 cells [1]): 4.22 µM and 4.4 µM
- effect on hPrEC cell proliferation / toxicity [2]: neither JCHmLHRH nor JC21mLHRH causes appreciable decreases in hPrEC cell proliferation; also recorded: nontoxic
- toxicity to bone marrow stromal cells in co-culture [3]: nontoxic
- relative intensity of GFP-HS-27a cells [3]: only decreases slightly

Substance: QHWSWGLRPGAFKKAFKKAKKAFKKAFKAFAFA [JC21mLHRH]
- cell growth after pretreatment (PC-3 cells [4]): completely inhibited cell growth
- effect on hPrEC cell proliferation / toxicity [2]: neither JCHmLHRH nor JC21mLHRH causes appreciable decreases in hPrEC cell proliferation; also recorded: nontoxic
- relative intensity of RFP-PC-3 cells (RFP-PC-3 cells): approaches zero
- decrease in sensitivity to peptide on depletion of LHRH levels [5]: 50%
- toxicity to bone marrow stromal cells in co-culture [3]: nontoxic
- relative intensity of GFP-HS-27a cells [3]: only decreases slightly
- morphological changes in cells (PC-3 cells [6]; PC-3 cells, 3 h exposure, real-time imaging): morphological changes
- cell death (PC-3 cells [6]; PC-3 cells, JCHmLHRH 5 μM or JC21mLHRH 8 μM, 6 h of treatment): ~80%
- cell death (PC-3 cells [6]; PC-3 cells, JCHmLHRH 5 μM or JC21mLHRH 8 μM, after the 24 h period): approximately 100%
- mode of cell death observed under microscope (PC-3 cells [6]; PC-3 cells, JCHmLHRH 5 μM or JC21mLHRH 8 μM, time-lapse microscopy): condensing of the cellular and nuclear membrane without bursting
- expression of apoptotic marker Annexin V (PC-3 cells [6]; exposed PC-3 cells): did not observe expression of apoptotic marker Annexin V

Substance: AFKKAFKKAKKAFKKAFKAFAFA [JC21]
- IC50 (PC-3 cells [1]): 9.25 µM
